Source: article PMC4241505 (Nature communications, 2014)
Ends that are not written are not given here.

Tested on: cathepsins B, H, and S
Settings: pH 5

Row | Molecule | Peptides detected on MALDI after digesting synthetic epitope with cathepsins
1 | CC(C)C[C@H](NC(=O)[C@H](CCCCN)NC(=O)[C@H](CC(C)C)NC(=O)[C@@H](NC(=O)[C@H](CC(N)=O)NC(=O)[C@H](CCC(N)=O)NC(=O)[C@H](CCCCN)NC(=O)[C@@H](NC(=O)[C@H](Cc1ccc(O)cc1)NC(=O)[C@H](CCCCN)NC(=O)[C@@H]1CCCN1)C(C)C)[C@@H](C)O)C(=O)N[C@@H](C)C(=O)N[C@H](C(=O)O)[C@@H](C)O [HA(306–318)] | PKYVKQNTLK (m/z 1218 Da)
2 | NRERRGIALDGKIKHE [hSA(291–306)] | NRERRGIALDGKIKHE (m/z 1892 Da) NRERRGIALDGKIK (m/z 1627 Da)
